In patent publication US20190151371A1, “PROCESS FOR CONTINUOUS CELL CULTURE OF ISLET CELLS” (Georgetown University, priority 2016, published 2019):

What was measured:
airway epithelial cells = settings: cited from earlier work
islet cells = test: Islet cell culture with upstream or downstream ROCK pathway inhibitor in place of a ROCK inhibitor; assay type: cell-based, human; settings: used in the culture conditions in place of a ROCK inhibitor
Source text: As used herein, inhibiting ROCK can mean to reduce the activity, function or expression of at least one of ROCK1 or ROCK2. […] In general, ROCK phosphorylates LIM kinase and myosin light chain (MLC) phosphatase after being activated through binding of GTP-bound Rho. One embodiment of the present invention thus involves blocking the upstream pathway of ROCK1 and/or ROCK2, for example GTP-bound Rho, such that ROCK1 and/or ROCK2 is not activated or its activity is reduced over untreated cells. Other upstream effectors include but are not limited to, integrins, growth factor receptors, including but not limited to, TGF-beta and EGFR, cadherins, G protein coupled receptors and the like. Another embodiment of the present invention thus involves blocking the activity, function or expression of downstream effector molecules of activated ROCK1 and/or ROCK2 such that ROCK1 and/or ROCK2 cannot propagate any signal or can only propagate a reduced signal over untreated cells. Downstream effectors include but are not limited to, Myosin phosphatase-targeting protein (MYPT), vimentin, LIMK, Myosin light chain kinase, NHE1, cofilin, Myosin II and the like. […] Upstream or downstream inhibition of ROCK, in place of direct ROCK inhibition and in conjunction with the other culture conditions described and required herein, may or may not generate conditionally immortalized islet cells. […]

Compound	effect on airway epithelial cells (airway epithelial cells)	effect on cell differentiation and proliferation in vitro (islet cells)
O=S(=O)(c1cccc2cnccc12)N1CCCNCC1 [HA 1077, fasudil]	induces membrane ruffling, loss of actin stress fibers and apoptosis	
C[C@@H](N)[C@H]1CC[C@H](C(=O)Nc2ccncc2)CC1 [Y-27632]	induces membrane ruffling, loss of actin stress fibers and apoptosis	
Cc1ccc2c(c1)C(=O)C1(O)CCN(c3ccccc3)C1=N2 (stereo not shown) [blebbistatin]		allow the cells to bypass differentiation and allow proliferation in vitro
C3 transferase		allow the cells to bypass differentiation and allow proliferation in vitro
